In publication PMC6364417, “Kinase inhibitor library screening identifies synergistic drug combinations effective in sensitive and resistant melanoma cells” (Journal of Experimental & Clinical Cancer Research : CR, 2019):

Legend:
Assay in all cases: Kinase inhibitor library screening, PrestoBlue cell viability, 1 or 10 μM, 72 h
[1] = tested on: IGR37-GP cells (Dabrafenib-resistant); details: for Cell viability in kinase inhibitor library screening, IGR37 GP, 10μΜ / Cell viability in kinase inhibitor library screening, IGR37 GP, 1μΜ / cell viability, IGR37 GP, 10μΜ / cell viability, IGR37 GP, 1μΜ: 72 h; for Cell viability in kinase inhibitor library screening, IGR37 GP, 1μΜ / cell viability, IGR37 GP, 1μΜ: in %; for viability at 1 µM / viability at 10 µM: Homo sapiens, IGR-37, 72 h; for viability at 1 µM: read-out: cell viability, IGR37 GP, 1μΜ; for viability at 10 µM: read-out: cell viability, IGR37 GP, 10μΜ
501Mel cells (parental) = details: 72 h; for Cell viability in kinase inhibitor library screening, 501Mel Parental, 1μΜ / Cell viability in kinase inhibitor library screening, 501Mel Parental, 10μΜ / cell viability, 501Mel Parental, 1μΜ / cell viability, 501Mel Parental, 10μΜ: in %; for viability at 1 µM / viability at 10 µM: Homo sapiens; for viability at 1 µM: read-out: cell viability, 501Mel Parental, 1μΜ; for viability at 10 µM: read-out: cell viability, 501Mel Parental, 10μΜ
Summary of the method: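 Values are % viability versus untreated wells, measured by PrestoBlue after a 72 h drug exposure. Screens covered the parental line plus sublines rendered resistant to Vemurafenib or Dabrafenib, each analysed in at least duplicate.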

[2] = tested on: 501Mel-GP cells (Dabrafenib-resistant); details: 72 h; for Cell viability in kinase inhibitor library screening, 501Mel GP, 1μΜ / Cell viability in kinase inhibitor library screening, 501Mel GP, 10μΜ / cell viability, 501Mel GP, 1μΜ / cell viability, 501Mel GP, 10μΜ: in %; for viability at 1 µM / viability at 10 µM: Homo sapiens; for viability at 1 µM: read-out: cell viability, 501Mel GP, 1μΜ; for viability at 10 µM: read-out: cell viability, 501Mel GP, 10μΜ
A375 cells (parental) = details: for viability at 1 µM / viability at 10 µM: Homo sapiens, A-375, 72 h; for viability at 1 µM: read-out: cell viability, A375 Parental, 1μΜ; for viability at 10 µM: read-out: cell viability, A375 Parental, 10μΜ
[3] = tested on: A375-XP cells (Vemurafenib-resistant); details: for Cell viability in kinase inhibitor library screening, A375 XP, 1μΜ / Cell viability in kinase inhibitor library screening, A375 XP, 10μΜ / cell viability, A375 XP, 1μΜ / cell viability, A375 XP, 10μΜ: 72 h; for viability at 1 µM / viability at 10 µM: Homo sapiens, A-375, 72 h; for viability at 1 µM: read-out: cell viability, A375 XP, 1μΜ; for viability at 10 µM: read-out: cell viability, A375 XP, 10μΜ; for cell viability, A375 XP, 1μΜ / cell viability, A375 XP, 10μΜ: in %
[4] = tested on: A375-GP cells (Dabrafenib-resistant); details: for viability at 1 µM / viability at 10 µM: Homo sapiens, A-375, 72 h; for viability at 1 µM: read-out: cell viability, A375 GP, 1μΜ; for viability at 10 µM: read-out: cell viability, A375 GP, 10μΜ
[5] = tested on: 501Mel-XP cells (Vemurafenib-resistant); details: 72 h; for Cell viability in kinase inhibitor library screening, 501Mel XP, 1μΜ / Cell viability in kinase inhibitor library screening, 501Mel XP, 10μΜ / cell viability, 501Mel XP, 1μΜ / cell viability, 501Mel XP, 10μΜ: in %; for viability at 1 µM / viability at 10 µM: Homo sapiens; for viability at 1 µM: read-out: cell viability, 501Mel XP, 1μΜ; for viability at 10 µM: read-out: cell viability, 501Mel XP, 10μΜ
IGR37 cells (parental) = details: for viability at 1 µM / viability at 10 µM: Homo sapiens, IGR-37, 72 h; for viability at 1 µM: read-out: cell viability, IGR37 Parental, 1μΜ; for viability at 10 µM: read-out: cell viability, IGR37 Parental, 10μΜ
[6] = tested on: IGR37-XP cells (Vemurafenib-resistant); details: for viability at 1 µM / viability at 10 µM: Homo sapiens, IGR-37, 72 h; for viability at 1 µM: read-out: cell viability, IGR37 XP, 1μΜ; for viability at 10 µM: read-out: cell viability, IGR37 XP, 10μΜ
[7] = IGR37 Parental, 1μΜ, 72 h, in %

## COc1ccc(-c2ccc3ncc4c(c3c2)n(-c2ccc(N3CCNCC3)c(C(F)(F)F)c2)c(=O)n4C)cn1 [NVP-BGT226]
[1]
  Cell viability in kinase inhibitor library screening, IGR37 GP, 10μΜ: 2.6%
  Cell viability in kinase inhibitor library screening, IGR37 GP, 1μΜ: 2.9
501Mel cells (parental)
  Cell viability in kinase inhibitor library screening, 501Mel Parental, 1μΜ: 1.2
  Cell viability in kinase inhibitor library screening, 501Mel Parental, 10μΜ: 1.1
[2]
  Cell viability in kinase inhibitor library screening, 501Mel GP, 1μΜ: 0.9
  Cell viability in kinase inhibitor library screening, 501Mel GP, 10μΜ: 0.145
A375 cells (parental); A375 Parental, 10μΜ, 72 h
  Cell viability in kinase inhibitor library screening, A375 Parental, 10μΜ: 0.952
A375 cells (parental); A375 Parental, 72 h
  Cell viability in kinase inhibitor library screening, A375 Parental, 1μΜ: 9.1
[3]
  Cell viability in kinase inhibitor library screening, A375 XP, 1μΜ: 7.2
  Cell viability in kinase inhibitor library screening, A375 XP, 10μΜ: 1.0
[4]; A375 GP, 1μΜ, 72 h
  Cell viability in kinase inhibitor library screening, A375 GP, 1μΜ: 7.1
[4]; A375 GP, 72 h
  Cell viability in kinase inhibitor library screening, A375 GP, 10μΜ: 0.9
[5]
  Cell viability in kinase inhibitor library screening, 501Mel XP, 1μΜ: 1.5
  Cell viability in kinase inhibitor library screening, 501Mel XP, 10μΜ: 1.1
IGR37 cells (parental); [7]
  Cell viability in kinase inhibitor library screening, IGR37 Parental, 1μΜ: 2.3
IGR37 cells (parental); IGR37 Parental, 72 h, in %
  Cell viability in kinase inhibitor library screening, IGR37 Parental, 10μΜ: -1.8
[6]; IGR37 XP, 72 h
  Cell viability in kinase inhibitor library screening, IGR37 XP, 10μΜ: 1.4%
[6]; IGR37 XP, 1μΜ, 72 h, in %
  Cell viability in kinase inhibitor library screening, IGR37 XP, 1μΜ: 2.5

## C=CC(=O)Nc1cccc(Oc2nc(Nc3ccc(N4CCN(C)CC4)cc3OC)ncc2Cl)c1 [WZ4002]
[1]
  viability at 1 µM: 91.8%
  viability at 10 µM: 16.7%
501Mel cells (parental)
  viability at 1 µM: 107%
  viability at 10 µM: -0.0492%
[2]
  viability at 1 µM: 109%
  viability at 10 µM: -0.074%
A375 cells (parental)
  viability at 1 µM: 103%
  viability at 10 µM: 23.8%
[3]
  viability at 1 µM: 104%
  viability at 10 µM: 6%
[4]
  viability at 1 µM: 96.3%
  viability at 10 µM: 3.9%
[5]
  viability at 1 µM: 104%
  viability at 10 µM: -0.3%
IGR37 cells (parental)
  viability at 1 µM: 101%
  viability at 10 µM: 2%
[6]
  viability at 1 µM: 85.2%
  viability at 10 µM: 1.4%

## Cn1cnc2c(F)c(Nc3ccc(Br)cc3Cl)c(C(=O)NOCCO)cc21 [AZD6244 (Selumetinib)]
[1]
  viability at 1 µM: 92%
  viability at 10 µM: 62.7%
501Mel cells (parental)
  viability at 1 µM: 61.6%
  viability at 10 µM: 60.6%
[2]
  viability at 1 µM: 96.9%
  viability at 10 µM: 73.6%
A375 cells (parental)
  viability at 1 µM: 21.3%
  viability at 10 µM: 18.6%
[3]
  viability at 1 µM: 42.3%
  viability at 10 µM: 15%
[4]
  viability at 1 µM: 29.4%
  viability at 10 µM: 17.8%
[5]
  viability at 1 µM: 81.2%
  viability at 10 µM: 58.1%
IGR37 cells (parental)
  viability at 1 µM: 40.2%
  viability at 10 µM: 36.6%
[6]
  viability at 1 µM: 83.3%
  viability at 10 µM: 42.2%

## Cc1cc(C(C)Nc2ccccc2)c2nc(N3CCOCC3)cc(=O)n2c1 (centres unmarked) [TGX-221]
[1]
  Cell viability in kinase inhibitor library screening, IGR37 GP, 10μΜ: 85.9%
  Cell viability in kinase inhibitor library screening, IGR37 GP, 1μΜ: 93.0
501Mel cells (parental)
  Cell viability in kinase inhibitor library screening, 501Mel Parental, 1μΜ: 99.4
  Cell viability in kinase inhibitor library screening, 501Mel Parental, 10μΜ: 97.1
[2]
  Cell viability in kinase inhibitor library screening, 501Mel GP, 1μΜ: 102.9
  Cell viability in kinase inhibitor library screening, 501Mel GP, 10μΜ: 78.5
A375 cells (parental); A375 Parental, 10μΜ, 72 h
  Cell viability in kinase inhibitor library screening, A375 Parental, 10μΜ: 94.9
A375 cells (parental); A375 Parental, 72 h
  Cell viability in kinase inhibitor library screening, A375 Parental, 1μΜ: 103.0
[3]
  Cell viability in kinase inhibitor library screening, A375 XP, 1μΜ: 107.8
  Cell viability in kinase inhibitor library screening, A375 XP, 10μΜ: 99.8
[4]; A375 GP, 1μΜ, 72 h
  Cell viability in kinase inhibitor library screening, A375 GP, 1μΜ: 95.9
[4]; A375 GP, 72 h
  Cell viability in kinase inhibitor library screening, A375 GP, 10μΜ: 91.3
[5]
  Cell viability in kinase inhibitor library screening, 501Mel XP, 1μΜ: 92.5
  Cell viability in kinase inhibitor library screening, 501Mel XP, 10μΜ: 67.8
IGR37 cells (parental); [7]
  Cell viability in kinase inhibitor library screening, IGR37 Parental, 1μΜ: 97.4
IGR37 cells (parental); IGR37 Parental, 72 h, in %
  Cell viability in kinase inhibitor library screening, IGR37 Parental, 10μΜ: 96.6
[6]; IGR37 XP, 72 h
  Cell viability in kinase inhibitor library screening, IGR37 XP, 10μΜ: 61.6%
[6]; IGR37 XP, 1μΜ, 72 h, in %
  Cell viability in kinase inhibitor library screening, IGR37 XP, 1μΜ: 95.0

## Cc1c(NC(=O)OC[C@@H]2COCCN2)cn2ncnc(Nc3ccc4c(cnn4Cc4cccc(F)c4)c3)c12 [BMS-599626 (AC480)]
[1]
  cell viability, IGR37 GP, 10μΜ: 75%
  cell viability, IGR37 GP, 1μΜ: 95.5
501Mel cells (parental)
  cell viability, 501Mel Parental, 1μΜ: 99.1
  cell viability, 501Mel Parental, 10μΜ: 87.7
[2]
  cell viability, 501Mel GP, 1μΜ: 106.6
  cell viability, 501Mel GP, 10μΜ: 91.5
A375 cells (parental); A375 Parental, 72 h, in %
  cell viability, A375 Parental, 1μΜ: 103.3
A375 cells (parental); A375 Parental, 10μΜ, 72 h, in %
  cell viability, A375 Parental, 10μΜ: 84.6
[3]
  cell viability, A375 XP, 1μΜ: 107.8
  cell viability, A375 XP, 10μΜ: 91.0
[4]; A375 GP, 72 h, in %
  cell viability, A375 GP, 10μΜ: 84.2
[5]
  cell viability, 501Mel XP, 1μΜ: 93.0
  cell viability, 501Mel XP, 10μΜ: 61.8
IGR37 cells (parental); [7]
  cell viability, IGR37 Parental, 1μΜ: 109.0
IGR37 cells (parental); IGR37 Parental, 72 h, in %
  cell viability, IGR37 Parental, 10μΜ: 92.5
[6]; IGR37 XP, 72 h
  cell viability, IGR37 XP, 10μΜ: 48.2%
[6]; IGR37 XP, 1μΜ, 72 h, in %
  cell viability, IGR37 XP, 1μΜ: 96.7

## CC(C)(C)c1cc(NC(=O)Nc2ccc(-c3cn4c(n3)sc3cc(OCCN5CCOCC5)ccc34)cc2)no1 [Quizartinib (AC220)]
[1]
  viability at 1 µM: 67.8%
  viability at 10 µM: 28.8%
501Mel cells (parental)
  viability at 1 µM: 95.1%
  viability at 10 µM: 89.6%
[2]
  viability at 1 µM: 109%
  viability at 10 µM: 93%
A375 cells (parental)
  viability at 1 µM: 104%
  viability at 10 µM: 96.3%
[3]
  viability at 1 µM: 108%
  viability at 10 µM: 96.3%
[4]
  viability at 1 µM: 99.4%
  viability at 10 µM: 88.8%
[5]
  viability at 1 µM: 94.6%
  viability at 10 µM: 80.5%
IGR37 cells (parental)
  viability at 1 µM: 97.3%
  viability at 10 µM: 102%
[6]
  viability at 1 µM: 43.9%
  viability at 10 µM: 7.2%

## COc1cccc(-c2cc(=O)c3ccccc3o2)c1N [PD98059]
[1]
  cell viability, IGR37 GP, 10μΜ: 88.7%
  cell viability, IGR37 GP, 1μΜ: 94.1
501Mel cells (parental)
  cell viability, 501Mel Parental, 1μΜ: 98.8
  cell viability, 501Mel Parental, 10μΜ: 79.8
[2]
  cell viability, 501Mel GP, 1μΜ: 104.1
  cell viability, 501Mel GP, 10μΜ: 84.1
A375 cells (parental); A375 Parental, 72 h, in %
  cell viability, A375 Parental, 1μΜ: 98.4
[3]
  cell viability, A375 XP, 1μΜ: 102.6
  cell viability, A375 XP, 10μΜ: 94.1
[4]; A375 GP, 1μΜ, 72 h, in %
  cell viability, A375 GP, 1μΜ: 95.5
[4]; A375 GP, 72 h, in %
  cell viability, A375 GP, 10μΜ: 83.6
[5]
  cell viability, 501Mel XP, 1μΜ: 97.3
  cell viability, 501Mel XP, 10μΜ: 80.0
IGR37 cells (parental); IGR37 Parental, 72 h, in %
  cell viability, IGR37 Parental, 10μΜ: 81.4
[6]; IGR37 XP, 72 h
  cell viability, IGR37 XP, 10μΜ: 61.9%
